How the values were obtained:
metastatic RCC = settings: monotherapy, cited from earlier work
786-O cells = test: Colony formation, 786-O isogenic cells; format: cell-based, human
Procedure: (§1) Colony formation of parental (WT) or PBRM1 knockout (KO) 786-O cells expressing shRNA against non-targeting control (NC), RELA, or NFKB1 cultured with a) 10% or b) 2% serum. c) Gene expression changes of NF-κB target genes in 786-O cells treated with 0.006 μM bortezomib (BTZ) or 0.6 µM Bay 11-7085 for 24 hours (n=3 technical replicates). * p-value<0.05 (two-sided t-test). […] A positive log fold change refers to gain in bortezomib treatment over DMSO. g) Colony formation of 786-O isogenic cells and h) NCC432 isogenic cells treated with bortezomib for a week. Tumor formation of isogenic 786-O cells (i) and NCC432 cells (j) treated with PBS control or 0.5 mg/kg bortezomib (BTZ) in NSG mice. (n=10 tumors per group for 786-O, and n=16 tumors for NCC432 PBS EV group and 12 tumors for NCC432 PBS PBRM1 group and 14 tumors for both NCC432 EV and PBRM1 BTZ groups). Data are presented as mean values+/−SEM. k) Model for the study.
Data are presented as median+/−25%. […] Data are presented as mean values+/−SD. e) Tornado plots of RELA and SMARCA4 ChIP-seq signals in parental 786-0 or PBRM1-KO 786-O cells treated with DMSO or 0.005 μM bortezomib for 9 hours. f) Kaplan-Meier curves of NSG mice bearing 786-O isogenic cells treated with PBRM1 control or 0.5 mg/kg bortezomib (WT: n=10 PBS arm, median survival=39 days; n=10 bortezomib arm, median survival=52 days, HR=4.1, p=3E-6, log rank test; KO: n=10 PBS arm, median survival=35 days, n=10 bortezomib arm, median survival=66 days, HR=4.1, p=3E-6, log rank test). g) Kaplan-Meier curves of NSG mice bearing NCC432 isogenic cells treated with PBRM1 control or 0.5 mg/kg bortezomib (EV: n=16 PBS arm, median survival=42 days; n=14 bortezomib arm, median survival=49 days, HR=2.5, p=0.0009, log rank test; PBRM1: n=12 PBS arm, median survival=55 days; n=14 bortezomib arm, median survival=58 days, HR=1.2, p=0.5, log rank test). h) 786-O PBRM1 WT or KO cells were screened against the high-specific SGC epigenetic probe collection and cell viability was measured by colony formation after 1 week of treatment relative to DMSO control. […]

NCC432 tumors = test: Tumor formation and survival of NSG mice bearing NCC432 isogenic cells; format: in vivo
Procedure: as §1
(§2) Data are presented as median+/−25%. Lower whisker is smallest observation greater than or equal to 25% quantile-1.5*interquantile range (IQR). Upper whisker represents the largest observation less than or equal to 75%+1.5*IQR. Amount of normalized RELA protein in the c) input or d) co-immunoprecipitated with SMARCA4 from 3 independent runs. Data are presented as mean values+/−SD. e) Tornado plots of RELA and SMARCA4 ChIP-seq signals in parental 786-0 or PBRM1-KO 786-O cells treated with DMSO or 0.005 μM bortezomib for 9 hours. f) Kaplan-Meier curves of NSG mice bearing 786-O isogenic cells treated with PBRM1 control or 0.5 mg/kg bortezomib (WT: n=10 PBS arm, median survival=39 days; n=10 bortezomib arm, median survival=52 days, HR=4.1, p=3E-6, log rank test; KO: n=10 PBS arm, median survival=35 days, n=10 bortezomib arm, median survival=66 days, HR=4.1, p=3E-6, log rank test). g) Kaplan-Meier curves of NSG mice bearing NCC432 isogenic cells treated with PBRM1 control or 0.5 mg/kg bortezomib (EV: n=16 PBS arm, median survival=42 days; n=14 bortezomib arm, median survival=49 days, HR=2.5, p=0.0009, log rank test; PBRM1: n=12 PBS arm, median survival=55 days; n=14 bortezomib arm, median survival=58 days, HR=1.2, p=0.5, log rank test). h) 786-O PBRM1 WT or KO cells were screened against the high-specific SGC epigenetic probe collection and cell viability was measured by colony formation after 1 week of treatment relative to DMSO control.
(§3) All animal studies were conducted in compliance with animal protocols approved by Institutional Animal Care and Use Committee (IACUC) of Singapore. Female NOD/SCID mice (8-10 week old) were implanted subcutaneously with 1×10^6 786-0 cells with either wildtype PBRM1 or PBRM1 knocked out subcutaneously. Male NSG mice (The Jackson laboratory) were implanted with 1×10^6 A498, NCC2112 or NCC432 with or without PBRM1. Tumor volume was monitored every 3-4 days. Tumor volume was calculated as (length×width×width)×π/6. Animals were sacrificed when the tumor volume exceeded 2000 mm^3.
(§4) Bortezomib […] was given twice weekly (day1, day 4) to male NSG mice (The Jackson laboratory) via the tail vein. Tumor volume and body weight were monitored every 3-4 days.

[1] = system: SMARCA4 and RELA interaction; test: Co-immunoprecipitation of RELA with SMARCA4 after bortezomib; format: cell-based, human; settings: bortezomib treatment
Source text: Data are presented as median+/−25%. Lower whisker is smallest observation greater than or equal to 25% quantile-1.5*interquantile range (IQR). Upper whisker represents the largest observation less than or equal to 75%+1.5*IQR. Amount of normalized RELA protein in the c) input or d) co-immunoprecipitated with SMARCA4 from 3 independent runs. […]

NCC432 cells = test: Colony formation, NCC432 isogenic cells; format: cell-based, human; settings: NCC432, a week
Procedure: as §1
In 6 wells, 1,000 786-O cells or 2,500 NCC432 cells were seeded and treated with DMSO control or increasing concentration of drugs for 7 days and stained with crystal violet. For drug screening, we used SGC epigenetic probe collection. For RNA-seq with bortezomib treatment, 2×10^5 786-O cells were treated with DMSO or 0.005 μM bortezomib and harvested 9 hours after treatment for RNA extraction. […]

[2] = system: NF-κB pathway (786-O cells); test: RNA-seq after bortezomib, 786-O; format: cell-based, human
Procedure: as §1
In 6 wells, 1,000 786-O cells or 2,500 NCC432 cells were seeded and treated with DMSO control or increasing concentration of drugs for 7 days and stained with crystal violet. For drug screening, we used SGC epigenetic probe collection. For RNA-seq with bortezomib treatment, 2×10^5 786-O cells were treated with DMSO or 0.005 μM bortezomib and harvested 9 hours after treatment for RNA extraction. For RT-qPCR with SMARCA2/4 ATPase inhibitor treatment, 1×10^5 786-O cells were treated with DMSO or 0.01 μM SMARCA2/4 ATPase inhibitor (Targetmol, T10616, CAS: 2270879-17-7) for 3 days before RNA extraction.
Total RNA was extracted using the Qiagen RNeasy Mini kit. RNA-seq libraries were prepared using Illumina Tru-Seq Stranded Total RNA kit protocol, according to the manufacturer's instructions (Illumina, San Diego, California, USA). […] Sequencing was performed on an Illumina HiSeq4000 sequencer with the paired-end 150 bp read option.
RNA-Seq Pathway Analysis RNA-seq data were mapped to hg19 (h117d5) using STAR, with GENCODE annotation (gencode.v19.annotation.gtf) and recommended settings from STAR manual. Gene expression levels were quantified with STAR. […]

786-O tumors = test: Tumor formation and survival of NSG mice bearing 786-O isogenic cells; format: in vivo; settings: for median survival: 0.5 mg/kg bortezomib arm n=10; for HR: bortezomib vs PBS, p=3E-6, log rank test
Procedure: as §1, §2, §3, §4

[3] = phase II trial of 37 patients with metastatic RCC

Compound: CC(C)C[C@H](NC(=O)[C@H](Cc1ccccc1)NC(=O)c1cnccn1)B(O)O [bortezomib]
- ranking of RCC response amongst solid tumors (metastatic RCC; literature survey of 32 trials): most responsive tumor type amongst all solid tumors
- partial response (metastatic RCC; [3]): 4 patients
- stable disease (metastatic RCC; [3]): 14 patients
- reducing colony formation (786-O cells; 786-O with and without PBRM1, vs DMSO): reducing colony formation
- reduction of colony formation, PB1-deficient vs PB1-proficient isogenic cells (786-O cells; 786-O, a week): preferential reduction of colony formation
- survival, mice bearing PB1-deficient vs PB1-proficient cells (NCC432 tumors; 0.5 mg/kg bortezomib): survived for a longer duration
- tumor response, PB1-deficient vs PB1-proficient isogenic cells (NCC432 tumors; 0.5 mg/kg bortezomib, NSG mice): responded better
- median survival (NCC432 tumors; NCC432 EV, 0.5 mg/kg bortezomib arm n=14, PBS arm 42 days): 49 days
- HR (NCC432 tumors; NCC432 EV, bortezomib vs PBS, p=0.0009, log rank test): 2.5
- median survival (NCC432 tumors; NCC432 PBRM1, 0.5 mg/kg bortezomib arm n=14, PBS arm 55 days): 58 days
- HR (NCC432 tumors; NCC432 PBRM1, bortezomib vs PBS, p=0.5, log rank test): 1.2
- effect on interaction between SMARCA4 and RELA [1]: did not significantly affect
- reduction of colony formation, PB1-deficient vs PB1-proficient isogenic cells (NCC432 cells): preferential reduction of colony formation
- effect on NF-κB pathway by global transcriptomics ([2]; 0.005 μM bortezomib, 9 hours, RNA-seq): downregulation of the NF-κB pathway
- effect on NF-κB activation (summary) ([2]; Example 2 summary): reverses NF-κB activation
- additional targets upregulated by PB1 loss that were suppressed ([2]; in addition to RELA targets, 786-O): 127 targets
- survival, mice bearing PB1-deficient vs PB1-proficient cells (786-O tumors; 0.5 mg/kg bortezomib): survived for a longer duration
- tumor response, PB1-deficient vs PB1-proficient isogenic cells (786-O tumors; 0.5 mg/kg bortezomib, NSG mice): responded better
- median survival (786-O tumors; 786-O KO, PBS arm 35 days): 66 days
- HR (786-O tumors; 786-O KO): 4.1
- median survival (786-O tumors; 786-O WT, PBS arm 39 days): 52 days
- HR (786-O tumors; 786-O WT): 4.1
- selectivity for PB1-deficient tumors (summary) (786-O tumors; 786-O and NCC432, Example 2 summary): selectively targets PB1-deficient tumors

— patent publication US20260357349A1, “METHODS OF IDENTIFYING AND TREATING CANCER” (Agency for Science, Technology and Research, priority 2022, published 2026)
